Laboratory results as given in publication PMC10859961, “Ir(III) Half-Sandwich Photosensitizers with a π-Expansive Ligand for Efficient Anticancer Photodynamic Therapy” (Journal of Medicinal Chemistry, 2024).
Where two headings read alike, the source gives them in different places.

Experiments:
[1] = test system: A549 cells; assay: Mitochondrial membrane potential (JC-1, flow cytometry); format: cell-based, human; settings: positive control, 5 μM, 30 min
Protocol: A549 cells were seeded onto 24-well plates. 24 h later, cells were incubated for 4 h with complexes 2, 4, 6, and 8 at 10 nM and then photoactivated or kept in the dark for an additional hour. Next, the cells were washed with PBS and harvested by trypsinization. Mitochondrial membrane potential changes were immediately measured by the JC-1 (5,5′,6,6′-tetrachloro-1,1′,3,3′-tetraethylbenzimidazolocarbo-cyanine iodide) Mitochondrial Membrane Potential Detection Kit (Biotium), according to the manufacturer’s instructions. As positive control, the cells were coincubated with CCCP (Sigma) at 5 μM for 30 min to disrupt the mitochondrial membrane potential. For each treatment, the fluorescence of 1 × 10^4 cells was analyzed by a Novocyte flow cytometer. JC-1 red aggregates were detected at a wavelength of 590 nm (FL2) and JC-1 green monomers at 529 nm (FL1).

[2] = test system: A549 cells; assay: Cell death mechanism (Annexin V-FITC / propidium iodide); format: cell-based, human; settings: positive control 50 μM for 24 h
Protocol: The cell death mechanism was analyzed with the Vybrant Apoptosis Assay Kit (Molecular Probes). A549 cells seeded in 12-well plates at a density of 1 × 10^5 cells per well were treated with complex 6 at the corresponding IC50,light × 5 under photoactivation conditions. Cisplatin at 50 μM was used as positive control. 4 and 20 h after the irradiation, cells were collected by trypsinization and immediately stained with Annexin V-FITC and propidium iodide according to the manufacturer’s instructions. The median fluorescence of 10,000 cells of each sample was analyzed by flow cytometry. Annexin-FITC staining was detected at a wavelength of 520 nm (FL1) and propidium iodide was detected at 617 nm (FL2).

[3] = test system: A549 cancer cells; assay: MTT cell viability assay, dark or photoactivated; format: cell-based, human; settings: A549, MTT; for IC50: 4 h incubation
Protocol: Cells were cultured in 96-well plates at a density of 3000 (A549), 2500 (HeLa), or 5000 (PC-3, 1BR.3.G, and MRC-5) cells per well in cell culture medium and allowed to attach for 24 h. Solutions of the complexes at different concentrations were prepared for cell treatments. In all cases, the solid compounds were weighed using an analytical balance (Mettler Toledo AX205DR) to ensure precise measurements. Subsequently, 5 mM solutions were prepared using DMSO. Solutions were then diluted in water to reach a concentration of 1 mM and then, aliquots were taken and diluted in culture medium to obtain solutions ranging from 0 to 50 μM. […] The cells were treated with these solutions in dark conditions or following the photoactivation protocol (see below). 48 h later the treatments were removed, and cells were washed with phosphate-buffered saline (PBS).
Initially, the effect of the complexes on the cell viability was determined by the 3-(4,5-dimethylthiazol-2-yl)-2,5-diphenyltetrazolium bromide (MTT) assay.[147] The cells were incubated for 2 h with 100 μL of culture medium together with 10 μL of MTT (Sigma-Aldrich) at 0.5 mg/mL. After discarding the medium, DMSO was added to each well to dissolve the purple formazan crystals. The absorbance of each well was determined on a Multiscan Plate Reader (Synergy 4, Biotek, Winooski) at a wavelength of 570 nm. Cell viability was also assessed using the CyQUANT Direct Cell Proliferation Assay (Thermo Fisher Scientific), following the manufacturer’s instructions. Briefly, after the treatments, the cells were washed with PBS, and an equal volume of culture medium and CyQUANT mix was added to each well. The plates were then incubated for 1 h at 37 °C. Subsequently, the fluorescence intensity was bottom read using a Multiscan Plate Reader (Synergy 4, Biotek, Winooski) with excitation and emission filters of 485 and 528 nm, respectively. In both assays, at least three replicates were measured for each treatment. The concentration that reduces the cell viability by 50% (IC50) was established using the Gen5 software (BioTek). Three independent experiments were carried out for each compound. […] The phototoxicity index (PI = IC50,dark/IC50,light) was determined.
To assess the photodynamic activity of the complexes, cells were incubated with the complexes for 4 h to enable their intracellular accumulation. The cells were then irradiated with light with a wavelength of 460 nm (blue), 530 nm (green), or 655 nm (red) for 1 h using a LED system (LuxLight) with an effective power of 6.7 mW cm^–2, which provides a total light dose of 24.1 J cm^–2. The LED system was positioned at 25 mm from the cell culture plates.

[4] = test system: porcine red blood cells (RBC); assay: Hemolytic activity (hemoglobin release); format: cell-based; settings: dark, 1 hour
Protocol: The hemolytic activities of the complexes were determined by measuring hemoglobin release from porcine red blood cells (RBC). First, fresh porcine blood commercially obtained was diluted to 5% v/v in PBS solution and washed three times with PBS by centrifugation at 1000 rcf for 10 min. Then, RBC suspension (150 μL) was mixed with 150 μL of each complex at concentrations ranging from 1 to 50 μM. A solution of 0.2% Triton X-100 in PBS was used as positive control to induce complete hemolysis. PBS alone was used as negative control. Samples were incubated at 37 °C for 1 h in an orbital shaker (50 rpm) and then centrifuged at 3500 rcf for 10 min. 80 μL aliquots of the supernatant were transferred to a 96-well plate and diluted with 80 μL of Milli-Q water. Hemolysis was evaluated by measuring the absorbance of the samples at 540 nm with a Synergy 4 plate reader (BioTek, Winooski). The percentage of hemolysis (H) was calculated using eq 4: [drawing 25] 4 where As is the absorbance for a given sample, An is the absorbance for the negative control, and Ap is the absorbance for the positive control. Each sample was tested in triplicate.

[5] = test system: CT26; design: method as in p (Pozza et al., Inorg. Chem. 2023); settings: 540 nm, dose 9 J cm‐2, ref p (Pozza et al., Inorg. Chem. 2023); cited from earlier work
[6] = Photocatalytic NADH oxidation (UV-vis); format: biochemical; design: key: TON = ΔNADH concentration after 1 h / photocatalyst concentration; settings: first hour, complex 2.5 μM, NADH 100 μM
Protocol: Fresh stock solutions of the complexes at 7.50 μM in H2O/MeOH mixture (97.5/2.5, v/v) and NADH at 300 μM in H2O/MeOH mixture (97.5/2.5, v/v) were prepared. In a quartz cell, 1 mL of complex solution, 1 mL of NADH solution, and 1 mL of solvent mixture were mixed to prepare a final solution with 2.50 μM complex and 100 μM NADH (complex/NADH rate = 1/40). The solutions were studied by recording UV–vis absorption spectra in dark conditions and under blue light irradiation (λexc = 470 nm, “Medusa” photoreactor) at ambient temperature and various time intervals for 8 h. In addition, a solution of NADH at 100 μM was studied under blue light irradiation to confirm its photostability. The photocatalytic rate of the photosensitizers was evaluated by monitoring its absorbance decrease at 340 nm, which correspond to NADH oxidation.
The turnover numbers (TONs) of complexes were calculated by measuring the absorption difference at 340 nm after 1 h of reaction. TON was calculated from the difference in NADH concentration after 1 h divided by the concentration of photocatalyst (eq 5), where b is the optical path length (1 cm). The concentration of NADH was obtained using the extinction coefficient ε340 = 5751 M^–1 cm^–1.[40],[148] [drawing 26] 5

[7] = test system: calf thymus DNA (CT-DNA); assay: Competitive EtBr displacement assay; format: binding; settings: CT-DNA saturated with EtBr; 1 h, room temperature; read-out: C50 (50% reduction of EtBr fluorescence)
Protocol: To investigate the capacity of the complexes to intercalate into DNA, the competitive ethidium displacement assay was carried out as previously described[149] with minor modifications. Stock solutions of 20 μM calf thymus DNA (CT-DNA) and 25 μM Ethidium bromide (EtBr) were prepared in saline TE (50 mM NaCl, 10 mM tris(hydroxymethyl) aminomethane–HCl, 0.1 mM ethylenediaminetetracetic acid (EDTA), pH 7.4). Serial dilutions of metal complexes were prepared at concentrations ranging from 20 to 400 μM from a 1 mM stock solution containing 20% DMSO. The assay was carried out by mixing 25 μL of CT-DNA and 25 μL of EtBr with 50 μL of each compound dilution, on a black 96-well plate. The plate was incubated at room temperature for 1 h and the fluorescence was measured on a Synergy 4 microplate reader (Biotek, Winooski), with excitation wavelength set to 500 nm, and emission wavelength set to 530–800 nm. The fluorescence emission at 590 nm was used to measure the C50, corresponding to the concentration of compound required to induce a 50% decrease in the fluorescence of the EtBr. Experiments were performed in triplicate.

[8] = 1O2 quantum yield determination with DPBF; settings: acetonitrile; 470 nm blue light
Protocol: It was performed for complexes 1–8 in acetonitrile according to a relative procedure adapted from the literature[132]−[134] based on monitoring the oxidation of 1,3-diphenylisobenzofuran (DPBF, yellow) to 1,2-dibenzoylbenzene (colorless) photosensitized by the Ir(III) complexes. DPBF was used as an ^1O2 scavenger due to its fast reaction with this molecule. Fresh stock air-equilibrated solutions of photosensitizers (6.00 × 10^–6 M) and DPBF (1.50 × 10^–4 M) in acetonitrile were prepared. In a quartz cell, 1 mL of DPBF solution, 0.5 mL of complex solution, and 1.5 mL of acetonitrile were mixed to prepare a final solution with 5.00 × 10^–5 M DPBF and 1.00 × 10^–6 M complex. The final solutions were studied by recording UV–vis absorption spectra at room temperature in dark conditions (over a period of 6 min with time intervals of 2 min), under blue light irradiation (λexc = 470 nm, “Medusa” photoreactor) and under green light irradiation (λexc = 530 nm, “Medusa” photoreactor) for 5 s irradiation intervals during a total exposure period of 20 s. Absorption UV–vis spectra were recorded after every irradiation interval.
The consumption of DPBF probe was measured by monitoring its absorbance intensity decrease at 410 nm with irradiation time. ^1O2 generation quantum yield (ϕΔ) was calculated from eq 1 using Rose Bengal or [Ru(bpy)3]^2+ as reference for complexes with pbpz and pbpn ligands, respectively: [drawing 22] 1 where s and ref subscripts correspond to the complex and the reference, ϕΔ is the ^1O2 generation quantum yield (0.53 for Rose Bengal[135] and 0.56 for [Ru(bpy)3]Cl2[132] in degassed acetonitrile), S is the slope of the plots of the −ln(normalized absorbance) of DPBF at 410 nm vs the irradiation time, and F is the correction factor of absorption, which is given by F = 1–10^–O.D. (where O.D. is the optical density at 470 nm of solutions of complexes and references). The reproducibility of the results was confirmed by performing each experiment three times.
The stability of DPBF probe was studied in dark conditions and under light irradiation. In dark conditions and under green light irradiation the probe remains unaltered. However, under blue light irradiation, a photobleaching of DPBF was observed. Probe consumption was approximately 6.5% every 5 s. Therefore, a working interval of 20 s was chosen, where 75% of the probe remains stable. To calculate the ϕΔ, a correction factor was applied to the absorbance at 410 nm: a 6.5% of the previous value was added to each absorbance to counteract self-consumption of the probe (i.e., to the absorbance at 10 s, a 6.5% of the absorbance at 5 s was added).

[9] = kept in the dark, viability after 48 h, read-out: IC50 dark
[10] = blue light 460 nm 1 h (24.1 J cm^–2), 48 h, read-out: IC50 blue light

N#CC(C#N)=NNc1cccc(Cl)c1 [CCCP, carbonyl cyanide m-chlorophenyl hydrazone, reference compound]
cells with red fluorescence (JC-1 aggregates), upper right quadrant [1]: 21.9%

N.N.[Cl][Pt][Cl] [Cisplatin, reference compound]
cells in early apoptosis (AN+; IP−), lower right quadrant [2]: 5.3% | cells in late apoptosis (AN+; IP+), upper right quadrant [2]: 26.1% | cells in necrosis (AN–; IP+), upper left quadrant [2]: 6.6% | IC50 [3, 9]: 8.9 ± 2 µM | Hemolytic activity ([4]; 1 μM): 0% | Hemolytic activity ([4]; 5 μM): 0% | Hemolytic activity ([4]; 10 μM): 0% | Hemolytic activity ([4]; 25 μM): 0.2%

[Ru+2].c1ccc(-c2ccnc3c2ccc2c(-c4ccccc4)ccnc23)cc1.c1ccc(-c2ccnc3c2ccc2c(-c4ccccc4)ccnc23)cc1.c1cnc2c(c1)ccc1cccnc12 [[Ru(DIP)2(phen)]2+]
PI [5]: 1111 | PI/Dose [5]: 123.4

Cc1c(C)c(C)[c-](C)c1C.F[B-](F)(F)F.c1ccc2nc3c4ccc[n+]5c4c4[c](cccc4c3nc2c1)[Ir]5[n+]1cc[nH]c1 [complex 3, [(η^5-C5Me5)Ir(Im)(pbpz)]BF4]
TON1h (NADH oxidation) ([6]; 470 nm blue light): 2.28 | TON1h (NADH oxidation) ([6]; dark): 0.47 | IC50 [3, 10]: 1.2 ± 0.1 µM | IC50 ([3]; green light 530 nm 1 h (24.1 J cm^–2), 48 h, read-out: IC50 green light): 2.5 ± 0.3 µM | IC50 [3, 9]: 4.9 ± 0.7 µM | PI green light (IC50,dark/IC50,light) ([3]; green light 530 nm, 24.1 J cm^–2): 2.0 | IC50 [7]: 16.1 µM | 1O2 generation quantum yield (ϕΔ), DPBF [8]: 0.0399

[(η^5-C5Me5)Ir(bhq)Cl] [complex 10]
IC50 [3, 10]: 5.6 ± 0.4 µM | IC50 [3, 9]: 10 ± 0.3 µM | PI blue light (IC50,dark/IC50,light) ([3]; blue light 460 nm, 24.1 J cm^–2): 1.8
